Test systems include 786-0 renal; HOP-62 NSCLC; KM12 colon; RXF 393 renal; UACC-62 melanoma.
Common to all, as to experiment: inhibition of tumour cell growth, NCI panel, 48 h

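Results reflect a 48-hour exposure of cells in 96-well plates to compound at five concentrations. At the TGI there is no net growth.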

Consider `COc1ccc(Nc2nc(N)c(C(=O)c3ccc(Cl)cc3)s2)cc1`, for which the TGI in the test on 786-0 renal is 11.2 µM; in the test on HOP-62 NSCLC it was 17 µM; in the test on KM12 colon it was 0.536 µM; with RXF 393 renal it was 0.0323 µM; with UACC-62 melanoma, more than 94.5 µM.
As to `O=C1CN(c2cccc(C(F)(F)F)c2)C(=O)CN1CCN1CC(=O)N(c2cccc(C(F)(F)F)c2)CC1=O`, the TGI with 786-0 renal, in the test with HOP-62 NSCLC and in the test with KM12 colon was more than 100 µM each time.
`COc1ccc(N2C(=O)/C(=C/c3ccc(N(CCC#N)CCC#N)cc3)N=C2c2ccccc2)cc1`: the TGI with 786-0 renal, in the test on HOP-62 NSCLC, in the test with KM12 colon, in the test on RXF 393 renal and with UACC-62 melanoma was more than 100 µM in each case.
With `COC(=O)C12Oc3ccc(-c4ccc5c(c4O)C(O)=C4C(=O)CC(C)C(O)C4(C(=O)OC)O5)c(O)c3C(O)=C1C(=O)CC(C)C2O` (stereo not drawn), the TGI with 786-0 renal is more than 32.2 µM; with HOP-62 NSCLC, 12.6 µM; with KM12 colon, more than 100 µM; in the test on RXF 393 renal, 0.935 µM; with UACC-62 melanoma it was 1.37 µM.
The corresponding values for `O=C1Nc2ccc(Br)cc2/C1=N/N1C(=O)C(=O)N(C2CCCCC2)C1=S` are 18.4 µM, 14.3 µM, 14.6 µM, 21.8 µM and 12.2 µM.
With `Nc1ccn(C2CCC(COP(=O)(O)OCC(O)COP(=O)(O)OCC3OC(n4cc(F)c(=O)[nH]c4=O)CC3O)O2)c(=O)n1` (stereo not drawn), the TGI in the test with 786-0 renal, with HOP-62 NSCLC, with KM12 colon and in the test with RXF 393 renal was more than 100 µM each time.
Take `CCOC(=O)N1CCC2(CC1)C[C@@](C(C)=O)(c1ccccc1)C(C)O2` (stereo partly drawn): the TGI with 786-0 renal, with HOP-62 NSCLC, in the test with KM12 colon and with UACC-62 melanoma was more than 100 µM each time.
In the case of `CCSc1nc(N/N=C/c2cccs2)c2cnn(CO)c2n1`, the TGI in the test on 786-0 renal was 6.34 µM; with HOP-62 NSCLC it was 14.9 µM; with KM12 colon it was 12.4 µM; in the test on RXF 393 renal, 13.9 µM; in the test with UACC-62 melanoma it was 22.5 µM.
For `Cn1cc2c3ccccc3nc-2c2ccccc21`, the TGI in the test with 786-0 renal was found to be 11.1 µM; with HOP-62 NSCLC, 4.16 µM; in the test on KM12 colon, 6.78 µM; in the test with UACC-62 melanoma, 3.15 µM.
The corresponding values for `COc1ccc(/C=C/C(=O)c2ccc(Br)cc2)cc1` are more than 100 µM, more than 100 µM, more than 100 µM and more than 100 µM.
Turning to `C/C(=N\NC(N)=S)c1nc2ncccc2[nH]1`, the TGI in the test on 786-0 renal, in the test with HOP-62 NSCLC, with KM12 colon, with RXF 393 renal and in the test on UACC-62 melanoma was more than 100 µM in each case.
In the case of `COC(=O)C(=O)C(C(=O)OC)C(=O)C(=O)Nc1c(Cl)cc([N+](=O)[O-])cc1Cl` (stereo not drawn), the TGI in the test on 786-0 renal, in the test on HOP-62 NSCLC, in the test on KM12 colon, with RXF 393 renal and with UACC-62 melanoma was more than 100 µM each time.
Turning to `CCN(C(=O)N[C@H](C(=O)N[C@@H](CSC)C(=O)N[C@@H](C)C(=O)OC)C(C)C)c1ccccc1`, the TGI came out at 34.2 µM in the test with 786-0 renal; 36.4 µM with HOP-62 NSCLC; 29.1 µM with KM12 colon; 32.2 µM in the test with RXF 393 renal; 27 µM in the test on UACC-62 melanoma.
The corresponding values for `COC(=O)c1ccccc1C1CN=NC12Cc1ccc3c(c1C2=O)CCC3` (stereo not drawn) are more than 100 µM, more than 100 µM, more than 100 µM, more than 100 µM and more than 100 µM.
The corresponding values for `CN(C)CC1CCC/C(=C\c2ccc(OC(=O)/C=C/c3ccc(Cl)cc3)cc2)C1=O` (stereo not drawn) are 3.05 µM, 14.8 µM, 4.38 µM, 4.08 µM and 19.1 µM.
`O=C(O)c1nn(-c2ccccc2)nc1-c1nn(-c2ccccc2)nc1C(=O)O`: the TGI in the test on 786-0 renal, in the test on HOP-62 NSCLC, with KM12 colon, in the test with RXF 393 renal and in the test with UACC-62 melanoma was more than 100 µM throughout.
In the case of `COc1ccc2[nH]c3c(c2c1)CC(=O)N1CCC[C@H](C1)CC31OCCCO1`, the TGI in the test with 786-0 renal, in the test with HOP-62 NSCLC, in the test on KM12 colon, with RXF 393 renal and with UACC-62 melanoma was more than 100 µM in each case.
Regarding `CCNC(=S)NNC(=O)c1ccccc1Nc1ccccc1C(=O)NNC(=S)NCC`, the TGI in the test on 786-0 renal, in the test with HOP-62 NSCLC, in the test on KM12 colon and in the test with UACC-62 melanoma was more than 100 µM each time.
For `Cc1cc(O)c2c(c1)C(C1c3cccc(O)c3C(=O)c3c(O)cc(C)cc31)c1cccc(O)c1C2=O` (stereo not drawn), the TGI in the test with 786-0 renal is 6.82 µM; in the test on HOP-62 NSCLC, 3 µM; in the test on KM12 colon, 4.29 µM; with RXF 393 renal it was 0.861 µM.
For `COc1cccc(OC)c1NC(=O)C(=O)Nn1c(NNC(=O)c2ccncc2)nc2ccccc2c1=O`, the TGI in the test with 786-0 renal, in the test with HOP-62 NSCLC, in the test with KM12 colon, with RXF 393 renal and with UACC-62 melanoma was more than 100 µM in each case.
In the case of `Cc1ccc(S(=O)(=O)N(CCNC(=O)c2cccc(O)c2O)c2cc3c4c(c2)Oc2cccc5c2C4(C)c2c(cccc2O3)O5)cc1`, the TGI in the test with 786-0 renal, in the test on HOP-62 NSCLC, in the test on KM12 colon and in the test with UACC-62 melanoma was more than 100 µM throughout.
On to `CSc1ncc2c(n1)-c1ccccc1OC2`, for which the TGI in the test on 786-0 renal, in the test with KM12 colon, in the test on RXF 393 renal and with UACC-62 melanoma was more than 100 µM each time.
As for `COc1ccc(-c2nnc3n(C)c4ccccc4n3c2=O)cc1`, the TGI is more than 100 µM in the test on 786-0 renal, 37.5 µM in the test with HOP-62 NSCLC, more than 100 µM in the test on KM12 colon and 82.9 µM with RXF 393 renal.
As to `COc1cc(S(=O)(=O)Nc2ccc(-c3csc(N4C(=O)CSC4c4ccccc4O)n3)cc2)ccc1Cl` (stereo not drawn), the TGI in the test with 786-0 renal, in the test on HOP-62 NSCLC, in the test on KM12 colon and with UACC-62 melanoma was more than 100 µM throughout.

The record behind these values is PubChem BioAssay (NCI).
